From ChEMBL document CHEMBL3217510, “Rhodanine carboxylic acids as novel inhibitors of histone acetyltransferases” (Medchemcomm, 2012)
pIC50: −log10 of the molar value.

What was measured:
[1] = target: T1, Histone acetyltransferase KAT2B (Homo sapiens, UniProt Q92831); assay: Inhibition of human recombinant N-terminal His-tagged PCAF histone acetyltransferase catalytic domain expressed in Escherichia coli BL21 D3 using biotinylated histone H3 as substrate at 50 uM after 10 mins by TR-FRET analysis relative to control
[2] = target: T1, Histone acetyltransferase KAT2B; assay: Inhibition of human recombinant N-terminal His-tagged PCAF histone acetyltransferase catalytic domain expressed in Escherichia coli BL21 D3 using biotinylated histone H3 as substrate after 10 mins by TR-FRET analysis relative to control
[3] = target: T2, Histone acetyltransferase KAT2A (Homo sapiens, UniProt Q92830); assay: Inhibition of KAT2A (362 to 837) (unknown origin) using biotinylated histone H3 as substrate after 10 mins by TR-FRET analysis relative to control
[4] = target: T3, CREB-binding protein (Homo sapiens, UniProt Q92793); assay: Inhibition of KAT3A (1319 to 1710) (unknown origin) using biotinylated histone H3 as substrate after 10 mins by TR-FRET analysis relative to control
Target sequence in this assay (Q92793 whole entry): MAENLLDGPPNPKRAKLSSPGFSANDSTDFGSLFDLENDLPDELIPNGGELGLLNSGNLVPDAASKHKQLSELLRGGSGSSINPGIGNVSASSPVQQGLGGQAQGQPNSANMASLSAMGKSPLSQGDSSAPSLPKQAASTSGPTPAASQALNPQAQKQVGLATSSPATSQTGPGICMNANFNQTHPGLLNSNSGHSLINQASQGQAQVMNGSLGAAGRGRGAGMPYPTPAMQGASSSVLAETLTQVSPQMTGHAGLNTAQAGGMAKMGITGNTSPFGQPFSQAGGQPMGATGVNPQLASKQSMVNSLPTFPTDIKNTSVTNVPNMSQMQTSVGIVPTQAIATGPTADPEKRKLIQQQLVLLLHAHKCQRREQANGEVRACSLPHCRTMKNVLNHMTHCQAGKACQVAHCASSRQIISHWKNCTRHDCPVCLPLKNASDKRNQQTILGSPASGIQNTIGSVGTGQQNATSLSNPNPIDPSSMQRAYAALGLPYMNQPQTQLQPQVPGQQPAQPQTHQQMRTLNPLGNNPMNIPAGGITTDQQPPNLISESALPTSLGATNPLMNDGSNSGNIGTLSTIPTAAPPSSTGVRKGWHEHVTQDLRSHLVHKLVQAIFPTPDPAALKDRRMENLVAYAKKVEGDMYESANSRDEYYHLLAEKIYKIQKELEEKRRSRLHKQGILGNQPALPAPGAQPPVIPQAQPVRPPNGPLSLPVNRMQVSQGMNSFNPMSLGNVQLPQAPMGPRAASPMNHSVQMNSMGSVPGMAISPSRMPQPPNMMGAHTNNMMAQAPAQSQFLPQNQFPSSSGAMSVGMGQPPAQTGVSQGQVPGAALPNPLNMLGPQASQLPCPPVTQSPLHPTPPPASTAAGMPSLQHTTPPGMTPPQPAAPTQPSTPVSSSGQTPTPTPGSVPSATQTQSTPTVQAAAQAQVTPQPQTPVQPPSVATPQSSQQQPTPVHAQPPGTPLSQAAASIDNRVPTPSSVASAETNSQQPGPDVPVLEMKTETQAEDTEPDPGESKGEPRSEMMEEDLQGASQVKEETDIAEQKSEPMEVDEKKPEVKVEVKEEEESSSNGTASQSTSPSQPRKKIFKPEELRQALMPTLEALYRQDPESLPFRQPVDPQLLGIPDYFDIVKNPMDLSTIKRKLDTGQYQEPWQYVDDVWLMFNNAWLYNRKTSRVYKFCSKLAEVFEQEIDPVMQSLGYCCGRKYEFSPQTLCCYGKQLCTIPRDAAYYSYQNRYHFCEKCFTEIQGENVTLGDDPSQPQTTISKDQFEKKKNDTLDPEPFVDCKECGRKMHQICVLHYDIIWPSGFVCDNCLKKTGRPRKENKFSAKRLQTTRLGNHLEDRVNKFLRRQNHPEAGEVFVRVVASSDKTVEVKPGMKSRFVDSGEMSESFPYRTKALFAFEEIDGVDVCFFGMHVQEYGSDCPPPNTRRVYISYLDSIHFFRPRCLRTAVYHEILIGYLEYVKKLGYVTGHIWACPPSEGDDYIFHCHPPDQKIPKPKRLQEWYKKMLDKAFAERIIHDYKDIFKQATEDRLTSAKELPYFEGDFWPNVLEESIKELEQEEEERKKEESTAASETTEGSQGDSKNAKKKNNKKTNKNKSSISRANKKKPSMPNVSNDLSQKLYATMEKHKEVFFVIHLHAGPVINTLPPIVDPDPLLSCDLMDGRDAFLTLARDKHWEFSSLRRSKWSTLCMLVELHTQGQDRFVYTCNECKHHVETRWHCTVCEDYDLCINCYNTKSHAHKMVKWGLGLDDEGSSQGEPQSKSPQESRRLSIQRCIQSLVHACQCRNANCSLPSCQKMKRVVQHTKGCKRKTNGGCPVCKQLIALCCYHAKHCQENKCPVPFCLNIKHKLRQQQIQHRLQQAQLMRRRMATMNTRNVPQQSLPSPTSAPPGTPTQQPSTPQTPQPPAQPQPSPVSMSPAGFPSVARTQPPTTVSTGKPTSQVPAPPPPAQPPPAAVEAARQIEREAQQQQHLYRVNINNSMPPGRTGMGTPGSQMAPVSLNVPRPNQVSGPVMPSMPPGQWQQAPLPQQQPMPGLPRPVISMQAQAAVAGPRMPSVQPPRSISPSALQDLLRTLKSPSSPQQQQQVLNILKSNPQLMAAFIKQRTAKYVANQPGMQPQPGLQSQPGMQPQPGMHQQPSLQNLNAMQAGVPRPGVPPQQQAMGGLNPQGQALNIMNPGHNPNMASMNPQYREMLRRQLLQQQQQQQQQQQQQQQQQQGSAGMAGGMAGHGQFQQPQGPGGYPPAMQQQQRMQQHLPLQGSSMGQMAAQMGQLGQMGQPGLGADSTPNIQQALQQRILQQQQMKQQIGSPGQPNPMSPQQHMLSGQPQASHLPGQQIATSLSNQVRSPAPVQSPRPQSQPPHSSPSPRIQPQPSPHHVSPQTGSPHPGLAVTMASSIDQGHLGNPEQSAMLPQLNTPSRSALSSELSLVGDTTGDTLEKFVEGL

[5] = target: T4, Histone acetyltransferase p300 (Homo sapiens, UniProt Q09472); assay: Inhibition of KAT3B (965 to 1810) (unknown origin) using biotinylated histone H3 as substrate after 10 mins by TR-FRET analysis relative to control
[6] = target: T3, CREB-binding protein; assay: Inhibition of KAT3A (1319 to 1710) (unknown origin) using biotinylated histone H3 as substrate at 50 uM after 10 mins by TR-FRET analysis relative to control
[7] = target: T2, Histone acetyltransferase KAT2A; assay: Inhibition of KAT2A (362 to 837) (unknown origin) using biotinylated histone H3 as substrate at 50 uM after 10 mins by TR-FRET analysis relative to control
[8] = target: T4, Histone acetyltransferase p300; assay: Inhibition of KAT3B (965 to 1810) (unknown origin) using biotinylated histone H3 as substrate at 50 uM after 10 mins by TR-FRET analysis relative to control
[9] = target: T4, Histone acetyltransferase p300; assay: Inhibition of KAT3B (965 to 1810) (unknown origin) using biotinylated histone H3 as substrate at 100 uM after 10 mins by TR-FRET analysis relative to control

T4 sequence (Q09472 whole entry): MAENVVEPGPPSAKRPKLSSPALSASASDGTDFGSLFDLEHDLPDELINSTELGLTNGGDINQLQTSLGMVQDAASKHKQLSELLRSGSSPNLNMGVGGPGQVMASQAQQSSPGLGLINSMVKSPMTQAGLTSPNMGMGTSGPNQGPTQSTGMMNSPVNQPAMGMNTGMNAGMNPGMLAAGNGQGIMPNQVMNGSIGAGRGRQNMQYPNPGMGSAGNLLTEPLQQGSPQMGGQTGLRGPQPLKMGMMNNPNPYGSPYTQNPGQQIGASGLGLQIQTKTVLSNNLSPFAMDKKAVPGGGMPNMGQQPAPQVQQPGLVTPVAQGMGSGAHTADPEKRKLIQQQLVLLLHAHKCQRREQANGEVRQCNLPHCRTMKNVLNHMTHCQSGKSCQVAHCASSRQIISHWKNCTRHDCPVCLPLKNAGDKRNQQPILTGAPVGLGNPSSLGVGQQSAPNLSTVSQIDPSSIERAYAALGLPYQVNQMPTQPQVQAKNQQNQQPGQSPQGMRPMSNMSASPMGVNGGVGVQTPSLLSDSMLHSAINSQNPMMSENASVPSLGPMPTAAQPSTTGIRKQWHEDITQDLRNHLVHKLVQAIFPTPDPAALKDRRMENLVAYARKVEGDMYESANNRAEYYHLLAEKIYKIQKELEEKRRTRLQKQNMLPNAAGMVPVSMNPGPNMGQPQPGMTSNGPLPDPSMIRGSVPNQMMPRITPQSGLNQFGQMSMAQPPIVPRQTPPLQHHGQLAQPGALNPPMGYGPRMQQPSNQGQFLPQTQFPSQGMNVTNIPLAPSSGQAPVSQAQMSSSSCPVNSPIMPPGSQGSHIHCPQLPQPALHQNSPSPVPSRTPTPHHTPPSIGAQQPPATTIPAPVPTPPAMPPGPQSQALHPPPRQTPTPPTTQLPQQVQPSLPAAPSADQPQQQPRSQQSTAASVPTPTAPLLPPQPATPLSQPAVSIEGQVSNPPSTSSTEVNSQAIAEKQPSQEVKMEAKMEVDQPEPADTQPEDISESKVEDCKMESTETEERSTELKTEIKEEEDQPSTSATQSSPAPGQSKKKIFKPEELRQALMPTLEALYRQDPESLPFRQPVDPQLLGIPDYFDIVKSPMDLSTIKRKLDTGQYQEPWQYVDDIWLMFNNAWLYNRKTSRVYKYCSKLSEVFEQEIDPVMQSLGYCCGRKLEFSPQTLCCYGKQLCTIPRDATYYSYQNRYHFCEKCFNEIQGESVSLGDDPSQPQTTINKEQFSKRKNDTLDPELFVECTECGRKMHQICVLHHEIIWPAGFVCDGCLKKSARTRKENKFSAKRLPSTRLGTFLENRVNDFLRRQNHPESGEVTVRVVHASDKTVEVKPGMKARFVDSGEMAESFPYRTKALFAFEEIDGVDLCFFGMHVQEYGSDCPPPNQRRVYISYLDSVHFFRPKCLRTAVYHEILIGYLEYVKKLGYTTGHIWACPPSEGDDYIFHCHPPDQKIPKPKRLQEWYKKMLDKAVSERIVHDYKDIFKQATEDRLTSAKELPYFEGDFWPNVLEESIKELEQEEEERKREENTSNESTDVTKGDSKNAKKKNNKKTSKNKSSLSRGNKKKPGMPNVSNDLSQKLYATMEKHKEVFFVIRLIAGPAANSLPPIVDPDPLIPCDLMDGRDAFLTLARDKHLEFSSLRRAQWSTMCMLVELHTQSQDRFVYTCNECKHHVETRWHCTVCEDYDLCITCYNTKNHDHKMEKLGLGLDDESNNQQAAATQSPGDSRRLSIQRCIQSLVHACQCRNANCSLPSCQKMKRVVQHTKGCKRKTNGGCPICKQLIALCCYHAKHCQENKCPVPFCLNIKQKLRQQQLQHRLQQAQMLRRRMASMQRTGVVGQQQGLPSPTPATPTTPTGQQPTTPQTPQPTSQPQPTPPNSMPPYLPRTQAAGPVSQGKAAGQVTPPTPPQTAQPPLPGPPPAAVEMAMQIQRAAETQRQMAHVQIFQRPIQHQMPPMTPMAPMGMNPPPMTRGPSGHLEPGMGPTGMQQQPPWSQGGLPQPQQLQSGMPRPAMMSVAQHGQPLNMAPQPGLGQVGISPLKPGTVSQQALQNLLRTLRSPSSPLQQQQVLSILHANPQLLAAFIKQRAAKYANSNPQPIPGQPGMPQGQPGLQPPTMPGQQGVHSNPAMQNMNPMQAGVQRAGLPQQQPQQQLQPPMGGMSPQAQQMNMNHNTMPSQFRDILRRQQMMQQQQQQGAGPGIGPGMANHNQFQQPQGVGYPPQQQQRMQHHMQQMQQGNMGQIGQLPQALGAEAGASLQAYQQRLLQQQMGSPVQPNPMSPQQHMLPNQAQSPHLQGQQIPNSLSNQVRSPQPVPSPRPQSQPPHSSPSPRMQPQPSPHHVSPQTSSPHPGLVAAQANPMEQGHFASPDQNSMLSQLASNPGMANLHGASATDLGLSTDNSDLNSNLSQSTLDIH

In the case of `COC(=O)CCCCCN1C(=O)/C(=C/c2ccc(C)cc2)SC1=S`, the inhibition [1] was 24%.
Compound `CCN1C(=O)/C(=C2\SC(=S)N(CCCCCC(=O)O)C2=O)c2ccccc21` has an inhibition [1] of 6%.
`CC1=C/C(=N/Nc2ccnc3cc(Cl)ccc23)CC1` showed an inhibition [1] of 12%.
`O=C(O)CCCCCN1C(=O)/C(=C/c2ccc(-c3ccccc3)cc2)SC1=S` showed an inhibition [1] of under 5%.
`Cc1ccc(CN2C(=O)/C(=C3\SC(=S)N(CCCCCC(=O)O)C3=O)c3ccccc32)cc1` was tested, and the pIC50 [2] was 4.17, the pIC50 [3] was 4.33 and the pIC50 [4] was 4.39. The pIC50 [5] was 4.09.
With `O=C(O)CCCCCN1C(=O)/C(=C2/C(=O)Nc3ccccc32)SC1=S` the inhibition [1] was 9%.
`Cc1ccc(CN2C(=O)/C(=C3\SC(=S)N(CCS(=O)(=O)O)C3=O)c3ccccc32)cc1` showed an inhibition [1] of under 5%.
`COC(=O)CCN1C(=O)/C(=C/c2cc(OC)ccc2OC)SC1=S` was tested, and the inhibition [1] was 8%.
`O=C(O)c1ccc(N2C(=O)/C(=C3/C(=O)N(Cc4ccccc4)c4ccccc43)SC2=S)cc1` showed an inhibition [1] of 14%.
`O=C(O)CCCCCN1C(=O)/C(=C2/C(=O)N(Cc3ccc([N+](=O)[O-])cc3)c3ccccc32)SC1=S` was tested, and the pIC50 [2] was 4.11, the pIC50 [3] was 4.16 and the pIC50 [4] was 4.55. For the same compound, the pIC50 [5] was 3.82.
In the case of `CCOc1ccccc1/C=C1\SC(=S)N(CCCCCC(=O)OC)C1=O`, the inhibition [1] was 9%.
Work on `Cc1cccc(NC(=O)CN2C(=O)/C(=C3\SC(=S)N(CCS(=O)(=O)O)C3=O)c3ccccc32)c1` yielded an inhibition [1] of 6%.
In the case of `Cc1ccc(CN2C(=O)/C(=C3\SC(=S)N(CCCCC(=O)O)C3=O)c3ccccc32)cc1`, the inhibition [1] was 8%.
Work on `O=C(O)CCCCCN1C(=O)/C(=C2/C(=O)N(Cc3ccccc3)c3ccccc32)SC1=S` yielded an inhibition [1] of 13%.
In the case of `Cc1ccc(COc2cccc(/C=C3\SC(=S)N(CCCC(=O)O)C3=O)c2)cc1`, the inhibition [1] was 5%.
With `O=c1c2cccnc2sn1Cc1ccc(Cl)cc1` the pIC50 [3] was 4.05 and the pIC50 [4] was 5.71.
`O=C(O)CCCCCN1C(=O)/C(=C2/C(=O)N(Cc3ccc(F)cc3)c3ccccc32)SC1=S` gave a pIC50 [2] of 4.01, a pIC50 [3] of 3.68 and a pIC50 [4] of 3.94. The pIC50 [5] was 3.61.
With `COC(=O)CCCCCN1C(=O)/C(=C/c2cc(OC)ccc2OC)SC1=S` the inhibition [1] was 21%.
With `COC(=O)CCCCCN1C(=O)/C(=C2/C(=O)N(Cc3ccc(C)cc3)c3ccccc32)SC1=S` the inhibition [6] was 25%, the inhibition [7] was 6% and the inhibition [8] was under 5%. It also gave an inhibition [1] of 8%.
`COc1ccc(/C=C2\SC(=S)N(CCCCCC(=O)O)C2=O)cc1Br` was tested, and the inhibition [1] was 8%.
Work on `Cc1ccc(CN2C(=O)/C(=C3\SC(=S)N(C[C@H]4CC[C@H](C(=O)O)CC4)C3=O)c3ccccc32)cc1` yielded an inhibition [9] of 23%, a pIC50 [2] of 4.38 and a pIC50 [3] of 4.33. For the same compound, the pIC50 [4] was 4.41.
In the case of `O=C1Nc2ccccc2/C1=C1/SC(=S)N(CCS(=O)(=O)O)C1=O`, the inhibition [1] was under 5%.
In the case of `COc1ccc(CN2C(=O)/C(=C3\SC(=S)N(CCCCCC(=O)O)C3=O)c3ccccc32)cc1`, the pIC50 [2] was 4.54, the pIC50 [3] was 4.26 and the pIC50 [4] was 4.39. For the same compound, the pIC50 [5] was 4.21.
Compound `CN(C)c1ccc(/C=C2\SC(=S)N(CCCCCC(=O)O)C2=O)cc1` has an inhibition [1] of under 5%.
`Cc1ccc(CN2C(=O)/C(=C3\SC(=S)N(CCCCCCCC(=O)O)C3=O)c3ccccc32)cc1` gave a pIC50 [2] of 4.20, a pIC50 [3] of 4.20 and a pIC50 [4] of 4.44. It also gave a pIC50 [5] of 4.02.
`CN1C(=O)/C(=C2\SC(=S)N(CCCCCC(=O)O)C2=O)c2ccccc21` gave an inhibition [1] of 5%.
`CCCCCCOc1ccc(/C=C2\SC(=S)N(CCCC(=O)O)C2=O)cc1` gave an inhibition [1] of 8%.
